The nature of one series: in vitro. To be noted: dog, MDCK.
A short description of series [1]: in vivo. Particulars: rat, po.
Series [2] in a line: in vivo. To be noted: rat.

Structures are written as SMILES. Values after ≈ are worked out from the molar mass of the structure shown.

`COc1ccc(-c2ccc3ncc4c(c3n2)n([C@H]2CC[C@H](OCCO)CC2)c(=O)n4C)cn1` had a solubility (kinetic) in “physchem” of 117 µM (≈ 52.6 µg/mL). For the same compound, the Papp in the series “in vitro” came out at 14.3 ×10⁻⁶ cm/s. The compound `COc1ccc(-c2ccc3ncc4c(c3n2)n(C2CCN(C)CC2)c(=O)n4C)cn1` yielded a bioavailability in “in vivo [1]” of 76%. The Vd in “in vivo [2]” is 4.46 L/kg. In “in vitro”, this compound displayed an apparent permeability coefficient (Papp) of 6.65 ×10⁻⁶ cm/s. With `Cc1ccc(-c2ccc3ncc4c(c3n2)n(C2CCN(C(=O)CO)CC2)c(=O)n4C)cn1`, in “in vitro”, the Papp turned out to be 18.2 ×10⁻⁶ cm/s. In the series “physchem”, `COc1ccc(-c2ccc3ncc4c(c3n2)n(-c2ccc(C(C)(C)C#N)cc2)c(=O)n4C)cn1` showed a kinetic solubility of 2 µM (≈ 0.901 µg/mL). Moreover, the apparent permeability (Papp) in the series “in vitro” turned out to be 0.305 ×10⁻⁶ cm/s. In “physchem”, `COc1ccc(-c2ccc3ncc4c(c3n2)n(C2CCN(C(C)=O)CC2)c(=O)n4C)cn1` returned a kinetic solubility of 22 µM (≈ 9.51 µg/mL). This compound displayed an apparent permeability coefficient (Papp) in the series “in vitro” of 16.3 ×10⁻⁶ cm/s.

`C[C@H](O)C(=O)N1CCC(n2c(=O)n(C)c3cnc4ccc(-c5cccc6[nH]ncc56)nc4c32)CC1` gave a kinetic solubility in “physchem” of 444 µM (≈ 209 µg/mL). This compound returned a Papp in the series “in vitro” of 4.6 ×10⁻⁶ cm/s.

In “in vitro”, `CC(=O)N1CCC(n2c(=O)n(C)c3cnc4ccc(-c5cnc6[nH]ncc6c5)nc4c32)CC1` came in with a Papp of 3.97 ×10⁻⁶ cm/s.

As for `Cc1ccc(-c2ccc3ncc4c(c3n2)n(C2CCN(C(=O)C(C)(C)O)CC2)c(=O)n4C)cn1`, the Papp in the series “in vitro” was determined as 21.9 ×10⁻⁶ cm/s. In “physchem”, `COc1ccc(-c2ccc3ncc4c(c3n2)n([C@H]2CC[C@H](O)CC2)c(=O)n4C)cn1` registered a kinetic solubility of 22.2 µM (≈ 9 µg/mL). The compound also came in with a Papp in the series “in vitro” of 14.3 ×10⁻⁶ cm/s. Take `COCC(=O)N1CCC(n2c(=O)n(C)c3cnc4ccc(-c5ccc(C)nc5)nc4c32)CC1`: in “in vitro”, the Papp is 20.2 ×10⁻⁶ cm/s. Compound `CC(=O)N1CCC(n2c(=O)n(C)c3cnc4ccc(-c5ccc(C)nc5)nc4c32)CC1` gave a solubility (kinetic) in “physchem” of 455 µM (≈ 190 µg/mL). In “in vitro”, this compound registered a Papp of 19.5 ×10⁻⁶ cm/s. In the same order, the values of `CC(=O)N1CCC(n2c(=O)n(C)c3cnc4ccc(-c5cccc6[nH]ncc56)nc4c32)CC1` are 55.5 µM (≈ 24.5 µg/mL) and 8.56 ×10⁻⁶ cm/s.

The values above are taken from ChEMBL document CHEMBL2331555 (ACS Med Chem Lett, 2013).
